According to patent EP1435231B1, “Non-pegylated long-circulating liposomes” (Bharat Serums & Vaccines Ltd., priority 2002, dated 2004):

Key:
[1] = Pharmacokinetic study of doxorubicin formulations in mice (plasma, HPLC); parameters: species or system Swiss albino mice; conditions: mouse, in vivo, 10 mg/kg
Method: Blood samples after collection were centrifuged at 4000 rpm for 20 min and the plasma was separated and frozen at -20°C until analysed. The frozen plasma was thawed and used for analysis.
1ml of acetonitrile was added to 100 µL of plasma, vortexed for 10 min, centrifuged at 3250 rpm for 10 min. The supernatant was withdrawn and 0.5ml of saturated ZnSO4 solution was added to it. The resulting solution was vortexed for 5 min and then centrifuged for 10 min at 3250 rpm. The upper organic layer was then withdrawn and dried under oxygen free nitrogen gas at 60°C. The residue obtained was then reconstituted with 200µL of Solvent A containing ZnSO4. 100 µL of this solution was then injected in the HPLC column.
Student's t-test was used for comparison between the three formulations.

Dogs = assay: Subacute toxicity in dogs; conditions: dog, in vivo
From the text: • clinical signs of toxicity, • body weight, • haemodynamic parameters, • haematology and • biochemical parameters TABLE 7

[2] = tested on: drug resistant (Pgp+) DLD-1 human colon tumour; assay: Efficacy in nude athymic mice implanted with multidrug resistant, Pgp positive DLD-1 tumour xenografts; conditions: mouse, in vivo
Method: Animals, nude athymic mice, 4 mice/group (10 in Control group) implanted subcutaneously with human DLD-1 colon tumour via trocar implant.
All agents were administered to nude athymic mice i.v. via tail vein on day 5 and 12 after s.c. tumour implant with the multidrug resistant, Pgp positive, human colon tumour xenograft.

Adriamycin^®
Cl [1]: 200.96 mL/h | Kel [1]: 4.852 | Liver Function Test: aspartate aminotranferase, alanine aminotranferase and total bilirubin levels (Dogs): Increase | creatinine phosphokinase and lactate dehydrogenase levels (Dogs): Increase | Body weight (Dogs; 1 mg/kg): decrease in the bodyweight | Haemodynamic Parameters: Heart rate (Dogs; 1 mg/kg): Increases by average + 29.17% | Haemodynamic Parameters: Respiratory rate (Dogs; 1 mg/kg): Decreases by average -42.12% | MTD relative to that of the liposomal formulations [2]: about half
